12 molecules from US9334278B2, “Pyrrolo[2,3-B]pyrazines as SYK inhibitors” (Hoffmann-La Roche Inc., priority 2012, dated 2016) can be followed below.

Molecules are shown by their SMILES.

Assay [1] relates to B cell CD69 up-regulation in human whole blood. Put plainly: B Cell CD69 Up-Regulation Assay in Human Whole Blood. The format is cell-based. The following applies: anti-human IgM 50 μg/mL for 20 h, CD69hi CD20+ B cells. On the procedure: B Cell CD69 Up-Regulation Assay in Human Whole Blood
Human Blood was collected from healthy volunteers into Vacutainers (BD Biosciences, San Jose, Calif.) containing sodium heparin. Test compound was suspended in DMSO and nine half-log serial dilutions were made. The concentration of […] in the assay was 0.5%. 100 μL whole blood was pre-incubated with compound for 30 min and then stimulated with goat F(ab′)2 anti-human IgM (50 μg/mL, Southern Biotech) for 20 h. At the end of the 20 hour incubation, samples were incubated with fluorochrome-conjugated antibodies, PE mouse anti-human CD20 and APC Mouse anti-human CD69 (BD Biosciences), for 30 minutes. Samples were then lysed with Lyse solution (BD) and washed with PBS containing 2% fetal bovine serum (FBS). Fluorescent signals were acquired on flow cytometer LSR II (BD) and data were analyzed by Flow Jo. The percentage of activated (CD69hi) B-cell lymphocytes (CD20+) were determined using un-stimulated (negative control) and stimulated (positive control) wells as reference guidelines. The percentage inhibition was calculated and an IC50 curve was constructed using GraphPad Prism software with sigmoidal curve fitting.

The target of assay [2] is recombinant human SYK360-635 (Spleen Tyrosine Kinase) (Homo sapiens (Human), UniProt P43405). Put plainly: SYK kinase assay (33P filtration, IC50 of SYK inhibition). As to conditions: read-out: ENZYME_FILTRATION_IC50; SYK 0.5 nM, ATP 20 μM, 33P filtration.
Description: Determination of IC50 of Spleen Tyrosine Kinase (SYK) inhibition:
SYK kinase assay is a standard kinase assay adapted to a 96 well plate format. This assay is performed in 96-well format for IC50 determination with 8 samples which represented 10 half log dilutions and a 40 μL reaction volume. The assay measures the incorporation of radiolabeled ^33P γATP into an N-terminally biotinylated peptide substrate, derived from naturally occurring phosphoacceptor consensus sequence (Biotin-11aa DY*E). Phosphorylated products were detected upon termination of reactions with EDTA and the addition of Streptavidin coated beads.
BSA: Bovine Serum Albumin Fraction V, fatty acid free (Roche Diagnostics GmbH, Cat. No. 9100221) diluted to a final concentration of 0.1%
Assay Dilution Buffer (ADB): 50 mM HEPES, 0.1 mM EGTA, 0.1 mM Na Vanadate, 0.1 mM (3-glycerophosphate, 10 mM MgCl2, 1 mM DTT, 0.1% BSA, pH 7.5
Bead wash buffer: 10 g/L PBS (Phosphate buffered saline) with 2M NaCl+1% phosphoric acid.
DMSO and the mixture was incubated for 10 min at RT.
The kinase reaction was initiated by the addition of 10 μL 4× substrate cocktail containing the DYE peptide substrate [0 or 5 μM], ATP [20 μM] and ^33PγATP [2 μCi/r×n]. After incubation at 30° C. for 15 min, the reaction was terminated by the transfer of 25 μL of the reaction sample to a 96 well 0.65 μm Millipore MADVNOB membrane/plate containing 200 μL 5 mM EDTA and 20% Streptavidine coated beads in PBS.
The unbound radionucleotides were washed under vacuum with 3×250 μL 2M NaCl; 2×250 μL 2M NaCl+1% phosphoric acid; 1×250 μL H2O. After the last wash membrane/plates were transferred to an adaptor plate, heat dried for 15 min at 60° C., and 50 μL scintillation cocktail was added to each well and 4 h later the amount of radioactivity was counted in a top counter.
Assay [3] relates to Human B cell lymphoma cell line Ramos. Put plainly: Ramos Calcium Influx FLIPR Assay. The format is cell-based. The following applies: Ramos cells, anti-human IgM 10 μg/mL stimulation, read-out: RAMOS_IC50. On the procedure: Ramos Calcium Influx FLIPR Assay
Human B cell lymphoma cell line Ramos was cultivated in RPMI-1640 with 10% Fetal Bovine Serum (Invitrogen). Cells were seeded into assay plate and loaded with calcium dye by adding 30 μl of dye loading buffer according to manufacturer's instruction (Beckton Dickinson Calcium Kit, Cat#80500). The cells were then treated with serial diluted compounds for 30 min before stimulation. Baseline fluorescence was recorded for about 20 seconds followed by stimulation with mouse anti-human IgM (10 μg/mL, clone M2E6, Antibody Solutions Inc.) for Ramos cells, and record of the maximal fluorescent counts in each well. Maximal counts divided by baseline counts, defined as fold change from baseline for each well, was used for IC50 calculation.

`Cc1cc(Nc2cnc3[nH]cc(C(=O)NC(C)(C)C)c3n2)sn1` [Compound I-18, N-tert-butyl-2-(3-methylisothiazol-5-ylamino)-5H-pyrrolo[2,3-b]pyrazine-7-carboxamide]: the IC50 in assay [1] was 125 nM; in assay [2] it was 2 nM; in assay [3], 78.9 nM.

In the case of `CC(C)(C)NC(=O)c1c[nH]c2ncc(Nc3ccc(S(C)(=O)=O)cc3)nc12` [Compound I-20, N-tert-butyl-2-(4-(methylsulfonyl)phenylamino)-5H-pyrrolo[2,3-b]pyrazine-7-carboxamide], the IC50 in assay [1] came to 506 nM; in assay [2] it was 30 nM; in assay [3] it was 338 nM.

In the case of `CN(c1cccnc1)c1cnc2[nH]cc(C(=O)NC(C)(C)C)c2n1` [Compound I-21, N-tert-butyl-2-(methyl(pyridin-3-yl)amino)-5H-pyrrolo[2,3-b]pyrazine-7-carboxamide], the IC50 is over 50000 nM in assay [1], 1900 nM in assay [2] and 4800 nM in assay [3].

Regarding `Cc1cc(Nc2cnc3[nH]cc(C(=O)NC(C)(C)C)c3n2)on1` [Compound I-22, N-tert-butyl-2-(3-methylisoxazol-5-ylamino)-5H-pyrrolo[2,3-b]pyrazine-7-carboxamide], the figures for the IC50 in assay [1], in assay [2] and in assay [3] were 1340 nM, 25.1 nM and 79.7 nM, respectively.

For the molecule `CC(C)(C)NC(=O)c1c[nH]c2ncc(Nc3ccc(S(C)(=O)=O)nc3)nc12` [Compound I-23, N-tert-butyl-2-(6-(methylsulfonyl)pyridin-3-ylamino)-5H-pyrrolo[2,3-b]pyrazine-7-carboxamide], the IC50 in assay [1] is 630 nM; in assay [2], 117 nM; in assay [3], 3620 nM.

Regarding `CC(O)c1cccc(Nc2cnc3[nH]cc(C(=O)NC(C)(C)C)c3n2)c1` (stereo not drawn) [Compound I-24, N-tert-butyl-2-(3-(1-hydroxyethyl)phenylamino)-5H-pyrrolo[2,3-b]pyrazine-7-carboxamide], the values for the IC50 in assay [1], in assay [2] and in assay [3] were 418 nM, 5.9 nM and 93.3 nM, respectively.

`COc1ncc(Nc2cnc3[nH]cc(C(=O)NC(C)(C)C)c3n2)cn1` [Compound I-25, N-tert-butyl-2-(2-methoxypyrimidin-5-ylamino)-5H-pyrrolo[2,3-b]pyrazine-7-carboxamide]: the IC50 in assay [1] was found to be 433 nM; in assay [2], 71.2 nM; in assay [3], 213 nM.

Consider `CC(N)c1cccc(Nc2cnc3[nH]cc(C(=O)NC(C)(C)C)c3n2)c1` (stereo not drawn) [Compound I-27, 2-(3-(1-aminoethyl)phenylamino)-N-tert-butyl-5H-pyrrolo[2,3-b]pyrazine-7-carboxamide], for which the IC50 stood at 631 nM in assay [1], 18.8 nM in assay [2] and 223 nM in assay [3].

In the case of `Cc1nn(C)cc1Nc1cnc2[nH]cc(C(=O)NC(C)(C)C)c2n1` [Compound I-30, N-tert-butyl-2-(1,3-dimethyl-1H-pyrazol-4-ylamino)-5H-pyrrolo[2,3-b]pyrazine-7-carboxamide], the IC50 in assay [1] came to 268 nM; in assay [2], 97.5 nM; in assay [3], 278 nM.

In the case of `Cn1cc2c(n1)CCCN2c1cnc2[nH]cc(C(=O)NC(C)(C)C)c2n1` [Compound I-32, N-tert-butyl-2-(2-methyl-6,7-dihydro-2H-pyrazolo[4,3-b]pyridin-4(5H)-yl)-5H-pyrrolo[2,3-b]pyrazine-7-carboxamide], the IC50 in assay [1] came to 1140 nM; in assay [2], 43.7 nM; in assay [3], 275 nM.

Regarding `Cn1ncc2c1CCCN2c1cnc2[nH]cc(C(=O)NC(C)(C)C)c2n1` [Compound I-33, N-tert-butyl-2-(1-methyl-6,7-dihydro-1H-pyrazolo[4,3-b]pyridin-4(5H)-yl)-5H-pyrrolo[2,3-b]pyrazine-7-carboxamide], the IC50 is 1460 nM in assay [1], 167 nM in assay [2] and 791 nM in assay [3].

On to `Cc1cc(Nc2nc3c(C(=O)NC(C)(C)C)c[nH]c3nc2C)sn1` [Compound I-36, 3-Methyl-2-(3-methyl-isothiazol-5-ylamino)-5H-pyrrolo[2,3-b]pyrazine-7-carboxylic acid tert-butylamide], for which the IC50 in assay [1] was determined as 8300 nM; in assay [2] it was 251 nM; in assay [3], 1250 nM.
